Tests used:
Assay type in all cases: cell-based, human
[1] = tested on: mPTP-active Daoy cell; assay: Inhibitory effect on mPTP-active Daoy cell (Promega CellTiter-Glo, intracellular ATP); conditions: Homo sapiens, Daoy, Daoy cell transfected with empty virus vector without PPIF shRNA
[2] = tested on: mPTP-inactive Daoy cell; assay: Inhibitory effect on mPTP-inactive Daoy cell (PPIF shRNA; Promega CellTiter-Glo, intracellular ATP); conditions: Homo sapiens, Daoy, Daoy cell transfected with virus vector carrying PPIF shRNA
From the text: The activity of mitochondria permeability transition pore (mPTP) was regulated by the PPIF protein. […] PPIF protein activity was restricted by the expression level of PPIF protein in cell.

[3] = tested on: mitochondria permeability transition pore; assay: Mitochondria membrane potential (TMRM) in Daoy cell, mPTP activity; conditions: H2O2 +, CsA −; untreated = 100
From the text: (§1) For cells with active mitochondria permeability transition pore, adding peroxide (such as H2O2) could increase the activity of mitochondria permeability transition pore, resulting in a decrease in mitochondria membrane potential.

[4] = tested on: mitochondria permeability transition pore; assay: Mitochondria membrane potential (TMRM) in Daoy cell transfected with empty virus vector; conditions: H2O2 +, CsA −; untreated = 100
From the text: as §1

[5] = tested on: mitochondria permeability transition pore; assay: Mitochondria membrane potential (TMRM) in Daoy cell transfected with virus vector carrying PPIF shRNA; conditions: H2O2 +, CsA −; untreated = 100
From the text: as §1

Q: How did the IC50 [1] turn out when `[2H]C([2H])([2H])Oc1c(OC)ccc2c1C(C1CCCC1)N1CCc3cc4c(cc3C1=C2)OCO4` (stereo not shown) [AB36501] was run?
A: 12.9 µM

Q: What about the IC50 [2] of the same compound?
A: 3.43 µM

Q: For `[2H]C([2H])([2H])Oc1c(OC)ccc2c1C([2H])(C1CCCC1)N1CCc3cc4c(cc3C1=C2)OCO4` (stereo not shown) [AB36509], which IC50 [1] is on record?
A: 2.12 µM

Q: What about the IC50 [2] of the same compound?
A: 0.45 µM

Q: `COc1ccc2c(c1OC)C(=C(Cl)Cl)N1CCc3cc4c(cc3C1=C2)OCO4` [AB36512] was tested. Which IC50 [1] did it give?
A: 6.42 µM

Q: What about the IC50 [2] of the same compound?
A: 7.09 µM

Q: How did the IC50 [1] turn out when `COc1ccc2c(c1OC)C(n1cccc1)N1CCc3cc4c(cc3C1=C2)OCO4` (stereo not shown) [AB36520] was run?
A: 16.1 µM

Q: And the IC50 [2]?
A: 16 µM

Q: Which IC50 [1] does the source give for `COc1ccc2c(c1OC)C(C1CCCCC1=O)N1CCc3cc4c(cc3C1=C2)OCO4` (stereo not shown) [AB36525] here?
A: 1.5 µM

Q: What about the IC50 [2] of the same compound?
A: 1.65 µM

Q: With `OO` [Compound H2O2, H2O2] as the compound, how does the “Relative TMRM signal intensity (%) in Daoy cell, mean value” [3] read?
A: 82%

Q: And the “Relative TMRM signal intensity (%) in the Daoy cell transfected with empty virus vector, mean value” [4]?
A: 79%

Q: What about the “Relative TMRM signal intensity (%) in the Daoy cell transfected with virus vector carrying PPIF shRNA, mean value” [5] of the same compound?
A: 95%

Source: US20250197389A1, “NITROGEN-CONTAINING HETEROCYCLIC COMPOUND” (SHANGHAI SHIJIANG BIOTECHNOLOGY CO., LTD, priority 2022, published 2025)
